# Assay results from patent US20110281285A1, “Assay for Detecting Cathepsin K Activty in Bone, Cartilage and/or Soft Tissue” (priority 2009, published 2011).
# Non-standard residues stand in square brackets, D forms with d. No end group written: not given here. Hyp = O=C(O)[C@@H]1C[C@@H](O)CN1
# T1: Recombinant human cathepsin K (Homo sapiens, UniProt P43235)
# T1 construct: processed to the mature form and purified as described previously; made in house; host or cells: Pichia pastoris
# T1 sequence (P43235 115-329): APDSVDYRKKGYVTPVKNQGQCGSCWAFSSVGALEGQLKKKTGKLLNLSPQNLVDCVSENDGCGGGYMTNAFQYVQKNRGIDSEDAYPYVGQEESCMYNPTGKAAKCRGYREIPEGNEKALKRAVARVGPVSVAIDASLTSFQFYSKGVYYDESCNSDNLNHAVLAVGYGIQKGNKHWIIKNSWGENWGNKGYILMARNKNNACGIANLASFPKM
# How the values were obtained:
# [1] = system: antiserum R771; assay: Competitive inhibition ELISA for neoepitope specificity of the antiserum; format: binding, rabbit; conditions: for competition by / binding of the antibody to competing synthetic peptide: competitive inhibition ELISA, FIG. 1A and B
# Experimental: A direct enzyme-linked immunosorbent assay (ELISA) assay was used to determine the antibody titer. The antiserum with the highest titer was selected for use. Investigation of the neoepitope specificity of the antiserum was performed by competitive inhibition ELISA as described.^17 The percentage binding and percentage inhibition were calculated for each of the standard peptides and results were expressed on a molar basis.
# (§1) Immulon™ 2 plates (VWR International, Montreal, Canada) were coated with the peptide-ovalbumin conjugate (prepared as described above for the hemocyanin conjugate) diluted in phosphate-buffered saline (PBS), pH 7.2, at 3 ng/well (50 μl/well), the optimum concentration as determined by checkerboard analyses. After overnight incubation at 4° C., the plate was washed three times with PBS-0.1% Tween™ 20 and blocked with 100 μl of PBS-1% bovine serum albumin (BSA), at room temperature for 30 minutes. Serial dilutions of the standard peptide containing the epitope that had been used for immunization were prepared and added at 50 μl/well in triplicate to round bottom polypropylene plates used as preincubation plates; the antiserum was diluted 1:12,000 (optimum dilution as determined by checkerboard analyses) in PBS-1% BSA, 0.1% Tween 20, pH 7.2, and added to the plates (50 μl/well). In the nonspecific binding wells 50 μl of PBS-1% BSA and 50 μl of PBS-1% BSA, 0.1% Tween 20 were added; the maximum binding wells contained 50 μl of the diluted antiserum and 50 μl of PBS-1% BSA. After 1 hour incubation at 37° C., 50 μl of each preincubated well was transferred to the Immulon 2 flat-bottom, 96-well microtiter plates. The plates were incubated at 4° C. for 30 minutes and then washed three times with PBS-0.1% Tween 20. Alkaline phosphatase-conjugated goat antirabbit IgG (Sigma, St. Louis, Mo.), diluted 1:1000 in PBS-1% BSA, 0.1% Tween 20 was then added to each well (50 μl/well). The plate was incubated for 1 hour at 37° C., washed three times with PBS-0.1% Tween 20, and once with distilled water. One 5 mg tablet of alkaline phosphatase substrate (Sigma) was dissolved in 10 ml of 8.9 mmol/L diethanolamine buffer, pH 9.8, and added to the plate (50 μl/well). The optical density (405 nm) was read after 1 hour incubation. The detection limit of the newly developed assay was 2.8 ng/ml and the coefficients of variation (% CV) of the intra-assays and inter-assays were <10%. The analytic recovery was 87.2 to 97.3% and the recovery rates for the serial dilution were 92 to 108%.
# [2] = biological target: T2, α-chymotrypsin (Bos taurus, UniProt P00766); assay: Treatment of immunizing peptide with α-chymotrypsin; conditions: 50 ng/ml immunizing peptide solution
# T2 construct: purchased Sigma
# Experimental: The content of C2K and C2C neoepitopes in cartilage were determined by extraction with α-chymotrypsin (Sigma). This degrades denatured but not intact triple helical collagen, to solubilize the collagen neoepitopes that can then be assayed. Femoral condylar cartilages from 17 normal and 19 OA individuals were washed and digested with α-chymotrypsin, as previously described.^23 The digest was removed and stored at −20° C. until analyzed. To ensure that the cathepsin K-generated neoepitope is not cleaved by α-chymotrypsin, a separate digestion was first performed by treating a 50 ng/ml immunizing peptide solution with α-chymotrypsin as described above. […] The concentration of the neoepitope released from the cartilage in the α-chymotrypsin digests was expressed as pmol of neoepitope/mg wet wt of cartilage (based on the molecular weights of the two neoepitope sequences used as standards in the ELISA assays: 717.8 Da for the C2K neoepitope and 972 Da for C2C).
# [3] = biological target: T1, Recombinant human cathepsin K; assay: Digestion of human Col II with cathepsin K, C2K neoepitope by inhibition ELISA; format: biochemical; conditions: pH 7.0, 2 μmol/L cathepsin K, peak at 48 hours, versus absence of chondroitin sulfate (FIG. 4)
# Experimental: as §1, with “Alkaline phosphatase-conjugated goat antirabbit IgG (Sigma, St. Louis, Mo.), diluted 1:1000 in PBS-1% BSA, 0.1% Tween 20 was then added to each well (50 μl/well). The plate was incubated for 1 hour at 37° C., washed three times with PBS-0.1% Tween 20, and once with distilled water. One 5 mg tablet of alkaline phosphatase substrate (Sigma) was dissolved in 10 ml of 8.9 mmol/L diethanolamine buffer, pH 9.8, and added to the plate (50 μl/well).” left out, “The detection limit of the newly developed assay was 2.8 ng/ml and the coefficients of variation (% CV) of the intra-assays and inter-assays were <10%. The analytic recovery was 87.2 to 97.3% and the recovery rates for the serial dilution were 92 to 108%.” left out
# [4] = biological target: antiserum R771 (rabbit polyclonal anti-C2K neoepitope antiserum); assay: competitive inhibition ELISA: free peptide against plate-bound peptide-ovalbumin conjugate, antiserum R771 at 1:12,000
Molecule,competition by / binding of the antibody to competing synthetic peptide [1],further results
(i): one-residue truncation of the immunizing peptide at the C terminus (CGEAGKP; listed as Homo sapiens),negligible,
(v): immunizing peptide with deletion of the alanine residue (CGEGKPG; listed as Homo sapiens),negligible binding,
"CGEAGKPG [immunizing peptide, N-terminal cysteine added]",,"IC50 ([1]; peptide alone as competitive antigen, antiserum R771 diluted 1:12,000, read-out: median inhibitory concentration (IC50) in ELISA inhibition assay): 45 nM; loss of epitope after α-chymotrypsin treatment [2]: No loss of epitope"
chondroitin 4-sulfate [C4S],,amount of C2K neoepitope on addition to the digestion buffer [3]: significantly increased
chondroitin 6-sulfate [C6S],,amount of C2K neoepitope on addition to the digestion buffer [3]: significantly increased
CGEAGKPG,,IC50 [4]: 45 nM

# The next lines start with results.
competition by / binding of the antibody to competing synthetic peptide [1],Molecule,further results
negligible,(ii): one-residue extension of the immunizing peptide at the C terminus (CGEAGKPGK; listed as Homo sapiens),
negligible binding,(vi): immunizing peptide with glutamic acid and alanine residues inverted (CGAEGKPG; listed as Homo sapiens),
some affinity,"peptide (iv): N-terminally truncated peptide, deletion of the G (CEAGKPG; listed as Homo sapiens)",
reduced affinity,"peptide iii: sequence similar to the immunizing peptide, except for the proline residue that was 4-hydroxylated (CGEAGK[Hyp]G)",
